Laboratory results as given in patent US20110200992A1, “Biological Compositions, Articles and Methods for Monitoring Sterilization Processes” (priority 2008, published 2011).

How the values were obtained:
spores = assay: Fluorescence over a range of dye concentrations with decreasing concentrations of spores (Example 5); format: cell-based, Gb. stearothermophilus; conditions: for Fluorescence intensity (normalized): ex 485/em 530 nm, 50° C.
Experimental: Dilutions were prepared using Sterile Water For Irrigation (Baxter, Deerfield, Ill.) and tested at a final population ranging between of 1×10^6 and 0 spores. The spore dilutions (100 microlitres) were combined with 200 microlitres of medium, consisting of Acridine Orange and nutrients as described in Example 1, with Acridine Orange concentrations at 1:5000 (0.0066 mM), 1:1000 (0.033 mM) and 1:500 (0.066 mM), each of the resulting mixtures was added to a well of a plate. The plate was subsequently placed in a preheated plate reader (BioTek Synergy 4 plate reader, Winooski, Vt.) at 50° C. and incubated for 60 min, during which fluorescence intensity readings were taken using excitation at 485 nm and emission at 530 nm. A summary of the normalized data is listed below in Table 5a-5c.

[1] = test system: Gb. stearothermophilus spores; assay: Fluorescence with live and dead (sterilized) spores, dye and nutrient medium treated with the same sterilizing conditions (Example 3); format: cell-based
Experimental: A glass vial containing 1 mL of 1×E7 Gb. stearothermophilus spore suspension described above and a glass vial containing 1 mL of medium containing a cell-permeant fluorescent dye as described in Example 1 were placed in a sterilizer and run in a 15 min 121° C. (250° F.) vacuum assisted cycle in a AMSCO Scientific SG-120 Eagle/Century Series steam sterilizer (Steris, Mentor Ohio), and 100 microlitres of the resulting autoclaved spore suspensions and medium were subsequently tested. Un-autoclaved spore suspensions that were subjected to a heat shock treatment at 80° C. for 10 min were tested simultaneously as a control. Spore suspensions (100 microlitres) were combined with 200 microlitres of medium, consisting of Acridine orange dye and nutrients as described in Example 1, that was run through the same steam sterilization cycle as the spores, and each resulting mixture was added to a well of a plate. The plate was subsequently placed in a preheated plate reader (Synergy 4, BioTek, Winooski, Vt.) at 50° C. and incubated for 180 min, during which fluorescence intensity readings using excitation and emission wavelengths of 520 and 580, respectively were taken for at total of 19 readings.

SMILES: CN(C)c1ccc2cc3ccc(N(C)C)cc3nc2c1 [Acridine Orange]
- Dependence of signal on dye concentration (spores; 0.0066, 0.033, 0.066 mM): the higher the signal
- Detection of spores (lowest spore population shown) (spores; all Acridine Orange concentrations (0.0066, 0.033, 0.066 mM)): Detection of E3 spores was shown
- Fluorescence intensity (normalized) (spores; dye 0.0066 mM with nutrients, 0 spores, 0:00:00): 0
- Fluorescence intensity (normalized) (spores; dye 0.0066 mM with nutrients, 0 spores, 0:15:00): 711
- Fluorescence intensity (normalized) (spores; dye 0.0066 mM with nutrients, 0 spores, 0:30:00): 886.5
- Fluorescence intensity (normalized) (spores; dye 0.0066 mM with nutrients, 0 spores, 0:45:00): 1027
- Fluorescence intensity (normalized) (spores; dye 0.0066 mM with nutrients, 0 spores, 1:00:00): 1147.5
- Fluorescence intensity (normalized) (spores; dye 0.0066 mM with nutrients, E3 spores, 0:00:00): 0
- Fluorescence intensity (normalized) (spores; dye 0.0066 mM with nutrients, E3 spores, 0:15:00): 2033
- Fluorescence intensity (normalized) (spores; dye 0.0066 mM with nutrients, E3 spores, 0:30:00): 2271.5
- Fluorescence intensity (normalized) (spores; dye 0.0066 mM with nutrients, E3 spores, 0:45:00): 2396
- Fluorescence intensity (normalized) (spores; dye 0.0066 mM with nutrients, E3 spores, 1:00:00): 2484.5
- Fluorescence intensity (normalized) (spores; dye 0.0066 mM with nutrients, E4 spores, 0:00:00): 0
- Fluorescence intensity (normalized) (spores; dye 0.0066 mM with nutrients, E4 spores, 0:15:00): 3754.5
- Fluorescence intensity (normalized) (spores; dye 0.0066 mM with nutrients, E4 spores, 0:30:00): 4088
- Fluorescence intensity (normalized) (spores; dye 0.0066 mM with nutrients, E4 spores, 0:45:00): 4174
- Fluorescence intensity (normalized) (spores; dye 0.0066 mM with nutrients, E4 spores, 1:00:00): 4268
- Fluorescence intensity (normalized) (spores; dye 0.0066 mM with nutrients, E5 spores, 0:00:00): 0
- Fluorescence intensity (normalized) (spores; dye 0.0066 mM with nutrients, E5 spores, 0:15:00): 5224
- Fluorescence intensity (normalized) (spores; dye 0.0066 mM with nutrients, E5 spores, 0:30:00): 5364
- Fluorescence intensity (normalized) (spores; dye 0.0066 mM with nutrients, E5 spores, 0:45:00): 5373
- Fluorescence intensity (normalized) (spores; dye 0.0066 mM with nutrients, E5 spores, 1:00:00): 5406
- Fluorescence intensity (normalized) (spores; dye 0.0066 mM with nutrients, E6 spores, 0:00:00): 0
- Fluorescence intensity (normalized) (spores; dye 0.0066 mM with nutrients, E6 spores, 0:15:00): 12024.5
- Fluorescence intensity (normalized) (spores; dye 0.0066 mM with nutrients, E6 spores, 0:30:00): 15320
- Fluorescence intensity (normalized) (spores; dye 0.0066 mM with nutrients, E6 spores, 0:45:00): 16514.5
- Fluorescence intensity (normalized) (spores; dye 0.0066 mM with nutrients, E6 spores, 1:00:00): 17130.5
- Fluorescence intensity (normalized) (spores; dye 0.033 mM with nutrients, 0 spores, 0:00:00): 0
- Fluorescence intensity (normalized) (spores; dye 0.033 mM with nutrients, 0 spores, 0:15:00): 740
- Fluorescence intensity (normalized) (spores; dye 0.033 mM with nutrients, 0 spores, 0:30:00): 958
- Fluorescence intensity (normalized) (spores; dye 0.033 mM with nutrients, 0 spores, 0:45:00): 1143.5
- Fluorescence intensity (normalized) (spores; dye 0.033 mM with nutrients, 0 spores, 1:00:00): 1280
- Fluorescence intensity (normalized) (spores; dye 0.033 mM with nutrients, E3 spores, 0:00:00): 0
- Fluorescence intensity (normalized) (spores; dye 0.033 mM with nutrients, E3 spores, 0:15:00): 2022.5
- Fluorescence intensity (normalized) (spores; dye 0.033 mM with nutrients, E3 spores, 0:30:00): 2281
- Fluorescence intensity (normalized) (spores; dye 0.033 mM with nutrients, E3 spores, 0:45:00): 2437
- Fluorescence intensity (normalized) (spores; dye 0.033 mM with nutrients, E3 spores, 1:00:00): 2558.5
- Fluorescence intensity (normalized) (spores; dye 0.033 mM with nutrients, E4 spores, 0:00:00): 0
- Fluorescence intensity (normalized) (spores; dye 0.033 mM with nutrients, E4 spores, 0:15:00): 3467
- Fluorescence intensity (normalized) (spores; dye 0.033 mM with nutrients, E4 spores, 0:30:00): 3640.5
- Fluorescence intensity (normalized) (spores; dye 0.033 mM with nutrients, E4 spores, 0:45:00): 3724
- Fluorescence intensity (normalized) (spores; dye 0.033 mM with nutrients, E4 spores, 1:00:00): 3810.5
- Fluorescence intensity (normalized) (spores; dye 0.033 mM with nutrients, E5 spores, 0:00:00): 0
- Fluorescence intensity (normalized) (spores; dye 0.033 mM with nutrients, E5 spores, 0:15:00): 5012
- Fluorescence intensity (normalized) (spores; dye 0.033 mM with nutrients, E5 spores, 0:30:00): 5029
- Fluorescence intensity (normalized) (spores; dye 0.033 mM with nutrients, E5 spores, 0:45:00): 4999
- Fluorescence intensity (normalized) (spores; dye 0.033 mM with nutrients, E5 spores, 1:00:00): 5068
- Fluorescence intensity (normalized) (spores; dye 0.033 mM with nutrients, E6 spores, 0:00:00): 0
- Fluorescence intensity (normalized) (spores; dye 0.033 mM with nutrients, E6 spores, 0:15:00): 14427.5
- Fluorescence intensity (normalized) (spores; dye 0.033 mM with nutrients, E6 spores, 0:30:00): 19073.5
- Fluorescence intensity (normalized) (spores; dye 0.033 mM with nutrients, E6 spores, 0:45:00): 20802.5
- Fluorescence intensity (normalized) (spores; dye 0.033 mM with nutrients, E6 spores, 1:00:00): 21688
- Fluorescence intensity (normalized) (spores; dye 0.066 mM with nutrients, 0 spores, 0:00:00): 0.0
- Fluorescence intensity (normalized) (spores; dye 0.066 mM with nutrients, 0 spores, 0:15:00): 815.5
- Fluorescence intensity (normalized) (spores; dye 0.066 mM with nutrients, 0 spores, 0:30:00): 1026.0
- Fluorescence intensity (normalized) (spores; dye 0.066 mM with nutrients, 0 spores, 0:45:00): 1184.5
- Fluorescence intensity (normalized) (spores; dye 0.066 mM with nutrients, 0 spores, 1:00:00): 1287.5
- Fluorescence intensity (normalized) (spores; dye 0.066 mM with nutrients, E3 spores, 0:00:00): 0.0
- Fluorescence intensity (normalized) (spores; dye 0.066 mM with nutrients, E3 spores, 0:15:00): 3420.0
- Fluorescence intensity (normalized) (spores; dye 0.066 mM with nutrients, E3 spores, 0:30:00): 3716.0
- Fluorescence intensity (normalized) (spores; dye 0.066 mM with nutrients, E3 spores, 0:45:00): 3902.5
- Fluorescence intensity (normalized) (spores; dye 0.066 mM with nutrients, E3 spores, 1:00:00): 4000.5
- Fluorescence intensity (normalized) (spores; dye 0.066 mM with nutrients, E4 spores, 0:00:00): 0.0
- Fluorescence intensity (normalized) (spores; dye 0.066 mM with nutrients, E4 spores, 0:15:00): 3261.5
- Fluorescence intensity (normalized) (spores; dye 0.066 mM with nutrients, E4 spores, 0:30:00): 3464.0
- Fluorescence intensity (normalized) (spores; dye 0.066 mM with nutrients, E4 spores, 0:45:00): 3586.5
- Fluorescence intensity (normalized) (spores; dye 0.066 mM with nutrients, E4 spores, 1:00:00): 3626.5
- Fluorescence intensity (normalized) (spores; dye 0.066 mM with nutrients, E5 spores, 0:00:00): 0.0
- Fluorescence intensity (normalized) (spores; dye 0.066 mM with nutrients, E5 spores, 0:15:00): 3422.5
- Fluorescence intensity (normalized) (spores; dye 0.066 mM with nutrients, E5 spores, 0:30:00): 3533.0
- Fluorescence intensity (normalized) (spores; dye 0.066 mM with nutrients, E5 spores, 0:45:00): 3606.0
- Fluorescence intensity (normalized) (spores; dye 0.066 mM with nutrients, E5 spores, 1:00:00): 3616.0
- Fluorescence intensity (normalized) (spores; dye 0.066 mM with nutrients, E6 spores, 0:00:00): 0.0
- Fluorescence intensity (normalized) (spores; dye 0.066 mM with nutrients, E6 spores, 0:15:00): 13727.5
- Fluorescence intensity (normalized) (spores; dye 0.066 mM with nutrients, E6 spores, 0:30:00): 15331.5
- Fluorescence intensity (normalized) (spores; dye 0.066 mM with nutrients, E6 spores, 0:45:00): 15529.5
- Fluorescence intensity (normalized) (spores; dye 0.066 mM with nutrients, E6 spores, 1:00:00): 15629.0
- Fluorescence intensity (normalized) ([1]; Autoclaved (dead) Spores, E6, ex 520/em 580, 50° C., 0 min): 0
- Fluorescence intensity (normalized) ([1]; Autoclaved (dead) Spores, E6, ex 520/em 580, 50° C., 30 min): −1468.25
- Fluorescence intensity (normalized) ([1]; Autoclaved (dead) Spores, E6, ex 520/em 580, 50° C., 60 min): −103.5
- Fluorescence intensity (normalized) ([1]; Autoclaved (dead) Spores, E6, ex 520/em 580, 50° C., 90 min): −9.25
- Fluorescence intensity (normalized) ([1]; Autoclaved (dead) Spores, E6, ex 520/em 580, 50° C., 120 min): −49.25
- Fluorescence intensity (normalized) ([1]; Autoclaved (dead) Spores, E6, ex 520/em 580, 50° C., 180 min): −307
- Fluorescence intensity (normalized) ([1]; Autoclaved Spores, 0, ex 520/em 580, 50° C., 0 min): 0
- Fluorescence intensity (normalized) ([1]; Autoclaved Spores, 0, ex 520/em 580, 50° C., 30 min): 375.25
- Fluorescence intensity (normalized) ([1]; Autoclaved Spores, 0, ex 520/em 580, 50° C., 60 min): 1347.25
- Fluorescence intensity (normalized) ([1]; Autoclaved Spores, 0, ex 520/em 580, 50° C., 90 min): 1533.75
- Fluorescence intensity (normalized) ([1]; Autoclaved Spores, 0, ex 520/em 580, 50° C., 120 min): 1491.25
- Fluorescence intensity (normalized) ([1]; Autoclaved Spores, 0, ex 520/em 580, 50° C., 180 min): 1427.75
- Fluorescence intensity (normalized) ([1]; Live Spores (heat shocked), E6, autoclaved dye + nutrient medium, ex 520/em 580, 50° C., 0 min): 0
- Fluorescence intensity (normalized) ([1]; Live Spores (heat shocked), E6, autoclaved dye + nutrient medium, ex 520/em 580, 50° C., 30 min): 6211.5
- Fluorescence intensity (normalized) ([1]; Live Spores (heat shocked), E6, autoclaved dye + nutrient medium, ex 520/em 580, 50° C., 60 min): 8652.5
- Fluorescence intensity (normalized) ([1]; Live Spores (heat shocked), E6, autoclaved dye + nutrient medium, ex 520/em 580, 50° C., 90 min): 9955.5
- Fluorescence intensity (normalized) ([1]; Live Spores (heat shocked), E6, autoclaved dye + nutrient medium, ex 520/em 580, 50° C., 120 min): 10376.5
- Fluorescence intensity (normalized) ([1]; Live Spores (heat shocked), E6, autoclaved dye + nutrient medium, ex 520/em 580, 50° C., 180 min): 10694.25
- Fluorescence intensity (normalized) ([1]; Live Spores, 0, autoclaved dye + nutrient medium, ex 520/em 580, 50° C., 0 min): 0
- Fluorescence intensity (normalized) ([1]; Live Spores, 0, autoclaved dye + nutrient medium, ex 520/em 580, 50° C., 30 min): 522.25
- Fluorescence intensity (normalized) ([1]; Live Spores, 0, autoclaved dye + nutrient medium, ex 520/em 580, 50° C., 60 min): 588.75
- Fluorescence intensity (normalized) ([1]; Live Spores, 0, autoclaved dye + nutrient medium, ex 520/em 580, 50° C., 90 min): 779.75
- Fluorescence intensity (normalized) ([1]; Live Spores, 0, autoclaved dye + nutrient medium, ex 520/em 580, 50° C., 120 min): 870
- Fluorescence intensity (normalized) ([1]; Live Spores, 0, autoclaved dye + nutrient medium, ex 520/em 580, 50° C., 180 min): 886.5
